Data published in ChEMBL document CHEMBL5154690, “Discovery of a tricyclic farnesoid X receptor agonist HEC96719, a clinical candidate for treatment of non-alcoholic steatohepatitis” (Eur J Med Chem, 2022).
pEC50: −log10 of the molar value. Activity calls are given as the source filed them. No cut-off for these calls is given here.

Key:
[1] = Drug recovery in spleen of male Sprague-Dawley rat at 4.5 mg/kg, po administered as C14-lableled compound and assessed as radioactivity and measured at 0.25 hrs; format: ADME, organism-based; settings: in vivo
[2] = Drug recovery in plasma of male Sprague-Dawley rat at 4.5 mg/kg, po administered as C14-lableled compound and assessed as radioactivity and measured at 24 hrs; format: ADME, organism-based; settings: in vivo, BLD = below limit of detection
[3] = target: T1, Peroxisome proliferator-activated receptor gamma (Homo sapiens, UniProt P37231); experiment: Agonist activity at PPARgamma (unknown origin)
T1 sequence (P37231 whole entry): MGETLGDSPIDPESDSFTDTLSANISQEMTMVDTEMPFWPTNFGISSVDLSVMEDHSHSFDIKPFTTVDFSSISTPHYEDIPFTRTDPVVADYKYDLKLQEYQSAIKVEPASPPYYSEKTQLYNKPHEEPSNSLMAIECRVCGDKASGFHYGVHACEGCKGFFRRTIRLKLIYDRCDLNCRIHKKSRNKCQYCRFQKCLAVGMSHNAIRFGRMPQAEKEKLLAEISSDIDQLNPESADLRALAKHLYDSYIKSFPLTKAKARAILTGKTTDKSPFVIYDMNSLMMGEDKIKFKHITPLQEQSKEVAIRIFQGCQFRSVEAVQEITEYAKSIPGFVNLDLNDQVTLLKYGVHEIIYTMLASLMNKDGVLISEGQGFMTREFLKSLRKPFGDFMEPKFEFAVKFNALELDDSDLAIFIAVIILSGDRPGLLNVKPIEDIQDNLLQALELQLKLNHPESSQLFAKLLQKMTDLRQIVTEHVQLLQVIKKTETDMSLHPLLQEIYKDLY

Mus musculus [4] = experiment: Anti-NASH activity in western style diet-induced nonalcoholic steatohepatitis model of male C57BL/6 mouse assessed as reduction in liver TG level at 1 mg/kg, po administered once daily from week 32 to 44; format: functional, organism-based
Mus musculus [5] = experiment: Anti-NASH activity against high fat (HF) diet-induced nonalcoholic steatohepatitis in leptin-deficient ob/ob mouse model assessed as reduction in serum ALT level at 0.1 to 1 mg/kg, po administered once daily from week 5 to 10; format: functional, organism-based; settings: dose 0.1-1 mg/kg
[6] = Drug recovery in heart of male Sprague-Dawley rat at 4.5 mg/kg, po administered as C14-lableled compound and assessed as radioactivity and measured at 1 hr; format: ADME, organism-based; settings: in vivo
Mus musculus [7] = experiment: Antifibrotic activity in C57BL/6 mouse model of CCI4-induced liver fibrosis assessed as decrease in serum TBIL level at 0.1 to 1 mg/kg, po administered once daily for 4 weeks; format: functional, organism-based; settings: dose 0.1-1 mg/kg
[8] = Cmax in male Sprague-Dawley rat at 5 mg/kg, po measured by LC-MS/MS analysis; format: ADME, organism-based; parameters: dose 5 mg/kg, route po; settings: in vivo
[9] = Drug recovery in ileum of male Sprague-Dawley rat at 4.5 mg/kg, po administered as C14-lableled compound and assessed as radioactivity and measured at 24 hrs; format: ADME, organism-based; settings: in vivo
Mus musculus [10] = experiment: Antifibrotic activity in C57BL/6 mouse model of CCI4-induced liver fibrosis assessed as decrease in serum TBIL level at 1 mg/kg, po administered once daily for 4 weeks; format: functional, organism-based
[11] = Drug recovery in kidney of male Sprague-Dawley rat at 4.5 mg/kg, po administered as C14-lableled compound and assessed as radioactivity and measured at 0.25 hrs; format: ADME, organism-based; settings: in vivo
[12] = Half-life in male Beagle dog at 5 mg/kg, po measured by LC-MS/MS analysis; format: ADME, organism-based, Canis lupus familiaris; settings: in vivo
[13] = Clearance in male C57BL/6 mouse at 2 mg/kg, iv measured by LC-MS/MS analysis; format: ADME, organism-based; settings: in vivo

Question: With `O=C(O)c1ccc2c(c1)Oc1ccc(OCc3c(-c4c(Cl)cccc4Cl)noc3C3CC3)nc1C1(CC1)C2` as the molecule, how does the Drug recovery [1] read?
Answer: 192 ngequiv/g

Question: What about the Drug recovery [2] of the same molecule?
Answer: Bld

Question: What about the pEC50 [3] of the same molecule?
Answer: < 5.00

Question: What about the Activity (Mus musculus [4]) of the same molecule?
Answer: Active

Question: What about the Activity (Mus musculus [5]) of the same molecule?
Answer: Active

Question: What about the Drug recovery [6] of the same molecule?
Answer: 341 ngequiv/g

Question: What about the Activity (Mus musculus [7]) of the same molecule?
Answer: Active

Question: What about the Cmax [8] of the same molecule?
Answer: 1090 ng/mL

Question: And the Drug recovery [9]?
Answer: 1542 ngequiv/g

Question: What about the Activity (Mus musculus [10]) of the same molecule?
Answer: Active

Question: What about the Drug recovery [11] of the same molecule?
Answer: 281 ngequiv/g

Question: What about the half-life [12] of the same molecule?
Answer: 3.42 h

Question: What about the clearance [13] of the same molecule?
Answer: 160 mL/min/kg
